Measurements taken from ChEMBL document CHEMBL6078657, “Thiazolidinedione-based structure modification of ergosterol peroxide provides thiazolidinedione-conjugated derivatives as potent agents against breast cancer cells through a PI3K/AKT/mTOR pathway” (Bioorg Med Chem, 2025).

Experiments:
Format in all cases: functional, cell-based
[1] = tested on: A549; assay: Antiproliferative activity against human A549 cells assessed as cell viability measured after 48 hrs incubation by MTT assay; conditions: A549, 48 h
[2] = tested on: HepG2; assay: Antiproliferative activity against human HepG2 cells assessed as cell viability measured after 48 hrs incubation by MTT assay; conditions: HepG2, 48 h
[3] = tested on: MCF7; assay: Antiproliferative activity against human MCF7 cells assessed as cell viability measured after 48 hrs incubation by MTT assay; conditions: MCF7, 48 h

| SMILES | IC50 [1] [µM] | IC50 [2] [µM] | IC50 [3] [µM] |
| --- | --- | --- | --- |
| CC(C)[C@@H](C)/C=C/[C@@H](C)[C@H]1CC[C@@H]2[C@]1(C)CC[C@H]1[C@]23C=C[C@]2(C[C@@H](OC(=O)N4CCN(C(=O)CN5C(=O)S/C(=C\c6cccc7ccccc67)C5=O)CC4)CC[C@]12C)OO3 | 7.88 | 14.5 | 9.41 |
| CC(C)[C@@H](C)/C=C/[C@@H](C)[C@H]1CC[C@@H]2[C@]1(C)CC[C@H]1[C@]23C=C[C@]2(C[C@@H](OC(=O)CN4C(=O)S/C(=C/c5ccc(Cl)cc5Cl)C4=O)CC[C@]12C)OO3 | 11 | 13.1 | 10.2 |
| COc1ccc(/C=C2\SC(=O)N(CC(=O)N3CCN(C(=O)O[C@H]4CC[C@]5(C)[C@H]6CC[C@]7(C)[C@@H]([C@H](C)/C=C/[C@H](C)C(C)C)CC[C@H]7[C@@]67C=C[C@]5(C4)OO7)CC3)C2=O)cc1OC | 7.75 | 21.5 | 13.6 |
| COc1ccc(/C=C2\SC(=O)N(CC(=O)N3CCN(C(=O)O[C@H]4CC[C@]5(C)[C@H]6CC[C@]7(C)[C@@H]([C@H](C)/C=C/[C@H](C)C(C)C)CC[C@H]7[C@@]67C=C[C@]5(C4)OO7)CC3)C2=O)cc1 | 6.24 | 8.85 | 13.7 |
| CC(C)[C@@H](C)/C=C/[C@@H](C)[C@H]1CC[C@@H]2[C@]1(C)CC[C@H]1[C@]23C=C[C@]2(C[C@@H](OC(=O)N4CCN(C(=O)CN5C(=O)S/C(=C\c6ccc(Cl)cc6Cl)C5=O)CC4)CC[C@]12C)OO3 | 11.7 | 15.6 | 12.9 |
| CC(C)[C@@H](C)/C=C/[C@@H](C)[C@H]1CC[C@@H]2[C@]1(C)CC[C@H]1[C@]23C=C[C@]2(C[C@@H](OC(=O)N4CCN(C(=O)CN5C(=O)S/C(=C\c6ccc(Br)cc6)C5=O)CC4)CC[C@]12C)OO3 | 5.74 | 12.4 | 10.4 |
| COc1cccc(/C=C2\SC(=O)N(CC(=O)N3CCN(C(=O)O[C@H]4CC[C@]5(C)[C@H]6CC[C@]7(C)[C@@H]([C@H](C)/C=C/[C@H](C)C(C)C)CC[C@H]7[C@@]67C=C[C@]5(C4)OO7)CC3)C2=O)c1 | 10.1 | 12.7 | 14.3 |
| COc1ccc(/C=C2\SC(=O)N(CC(=O)N3CCN(C(=O)O[C@H]4CC[C@]5(C)[C@H]6CC[C@]7(C)[C@@H]([C@H](C)/C=C/[C@H](C)C(C)C)CC[C@H]7[C@@]67C=C[C@]5(C4)OO7)CC3)C2=O)c(OC)c1OC | 5.17 | 9.75 | 8.96 |
| COc1ccc(/C=C2/SC(=O)N(CC(=O)O[C@H]3CC[C@]4(C)[C@H]5CC[C@]6(C)[C@@H]([C@H](C)/C=C/[C@H](C)C(C)C)CC[C@H]6[C@@]56C=C[C@]4(C3)OO6)C2=O)cc1OC | 15.2 | 18 | 13.6 |
| CC(C)[C@@H](C)/C=C/[C@@H](C)[C@H]1CC[C@@H]2[C@]1(C)CC[C@H]1[C@]23C=C[C@]2(C[C@@H](OC(=O)CN4C(=O)S/C(=C/c5ccc(Br)cc5)C4=O)CC[C@]12C)OO3 | 9.5 | 17.8 | 12.3 |
| CC(C)[C@@H](C)/C=C/[C@@H](C)[C@H]1CC[C@@H]2[C@]1(C)CC[C@H]1[C@]23C=C[C@]2(C[C@@H](OC(=O)NCCNC(=O)CN4C(=O)S/C(=C\c5ccc(F)cc5)C4=O)CC[C@]12C)OO3 | 9.17 | 13.3 | 11.6 |
| COc1ccc(/C=C2/SC(=O)N(CC(=O)O[C@H]3CC[C@]4(C)[C@H]5CC[C@]6(C)[C@@H]([C@H](C)/C=C/[C@H](C)C(C)C)CC[C@H]6[C@@]56C=C[C@]4(C3)OO6)C2=O)cc1 | 9.91 | 10.7 | 18.4 |
| CC(C)[C@@H](C)/C=C/[C@@H](C)[C@H]1CC[C@@H]2[C@]1(C)CC[C@H]1[C@]23C=C[C@]2(C[C@@H](OC(=O)NCCNC(=O)CN4C(=O)S/C(=C\c5ccc(C(C)(C)C)cc5)C4=O)CC[C@]12C)OO3 | 6.68 | 9.86 | 10.7 |
| CC(C)[C@@H](C)/C=C/[C@@H](C)[C@H]1CC[C@@H]2[C@]1(C)CC[C@H]1[C@]23C=C[C@]2(C[C@@H](OC(=O)CN4C(=O)S/C(=C/c5cccc6ccccc56)C4=O)CC[C@]12C)OO3 | 10.3 | 6.08 | 14.7 |
| Cc1ccc(/C=C2\SC(=O)N(CC(=O)N3CCN(C(=O)O[C@H]4CC[C@]5(C)[C@H]6CC[C@]7(C)[C@@H]([C@H](C)/C=C/[C@H](C)C(C)C)CC[C@H]7[C@@]67C=C[C@]5(C4)OO7)CC3)C2=O)cc1 | 7.01 | 10.4 | 9.45 |
| CC(C)[C@@H](C)/C=C/[C@@H](C)[C@H]1CC[C@@H]2[C@]1(C)CC[C@H]1[C@]23C=C[C@]2(C[C@@H](OC(=O)N4CCN(C(=O)CN5C(=O)S/C(=C\c6ccccc6)C5=O)CC4)CC[C@]12C)OO3 | 6.05 | 9.71 | 8.48 |
| CC(C)[C@@H](C)/C=C/[C@@H](C)[C@H]1CC[C@@H]2[C@]1(C)CC[C@H]1[C@]23C=C[C@]2(C[C@@H](OC(=O)N4CCN(C(=O)CN5C(=O)S/C(=C\c6ccccc6F)C5=O)CC4)CC[C@]12C)OO3 | 6.95 | 10.8 | 15.8 |

| SMILES | IC50 [1] [µM] | IC50 [2] [µM] | IC50 [3] [µM] |
| --- | --- | --- | --- |
| CC(C)[C@@H](C)/C=C/[C@@H](C)[C@H]1CC[C@@H]2[C@]1(C)CC[C@H]1[C@]23C=C[C@]2(C[C@@H](OC(=O)CN4C(=O)S/C(=C/c5ccc(C(C)(C)C)cc5)C4=O)CC[C@]12C)OO3 | 8.31 | 15.4 | 9.44 |
| CC(C)[C@@H](C)/C=C/[C@@H](C)[C@H]1CC[C@@H]2[C@]1(C)CC[C@H]1[C@]23C=C[C@]2(C[C@@H](OC(=O)N4CCN(C(=O)CN5C(=O)S/C(=C\c6ccc(Cl)cc6)C5=O)CC4)CC[C@]12C)OO3 | 5.94 | 9.58 | 8.94 |
| CC(C)[C@@H](C)/C=C/[C@@H](C)[C@H]1CC[C@@H]2[C@]1(C)CC[C@H]1[C@]23C=C[C@]2(C[C@@H](OC(=O)N4CCN(C(=O)CN5C(=O)CSC5=O)CC4)CC[C@]12C)OO3 | 4.82 | 8.97 | 6.37 |
| CC(C)[C@@H](C)/C=C/[C@@H](C)[C@H]1CC[C@@H]2[C@]1(C)CC[C@H]1[C@]23C=C[C@]2(C[C@@H](OC(=O)N4CCN(C(=O)CN5C(=O)S/C(=C\C6CC6)C5=O)CC4)CC[C@]12C)OO3 | 6.06 | 8.97 | 7.17 |
| CC(C)[C@@H](C)/C=C/[C@@H](C)[C@H]1CC[C@H]2C3=CC=C4C[C@@H](OC(=O)NCCNC(=O)CN5C(=O)S/C(=C\C6CC6)C5=O)CC[C@]4(C)[C@H]3CC[C@]12C | > 80 | > 80 | > 80 |
| CC(C)[C@@H](C)/C=C/[C@@H](C)[C@H]1CC[C@@H]2[C@]1(C)CC[C@H]1[C@]23C=C[C@]2(C[C@@H](OC(=O)N4CCN(C(=O)CN5C(=O)S/C(=C\c6ccoc6)C5=O)CC4)CC[C@]12C)OO3 | 10.4 | 19.8 | 16.7 |
| CC(C)[C@@H](C)/C=C/[C@@H](C)[C@H]1CC[C@@H]2[C@]1(C)CC[C@H]1[C@]23C=C[C@]2(C[C@@H](OC(=O)CN4C(=O)S/C(=C/C5CC5)C4=O)CC[C@]12C)OO3 | 13 | 13.1 | 9.35 |
| CC(C)[C@@H](C)/C=C/[C@@H](C)[C@H]1CC[C@@H]2[C@]1(C)CC[C@H]1[C@]23C=C[C@]2(C[C@@H](OC(=O)N4CCN(C(=O)CN5C(=O)S/C(=C\c6ccc(C(C)(C)C)cc6)C5=O)CC4)CC[C@]12C)OO3 | 11.6 | 19.5 | 14.4 |
| CC(C)[C@@H](C)/C=C/[C@@H](C)[C@H]1CC[C@@H]2[C@]1(C)CC[C@H]1[C@]23C=C[C@]2(C[C@@H](OC(=O)N4CCN(C(=O)CN5C(=O)S/C(=C\c6ccc(F)cc6)C5=O)CC4)CC[C@]12C)OO3 | 9.34 | 12 | 12.2 |
| COc1ccccc1/C=C1\SC(=O)N(CC(=O)N2CCN(C(=O)O[C@H]3CC[C@]4(C)[C@H]5CC[C@]6(C)[C@@H]([C@H](C)/C=C/[C@H](C)C(C)C)CC[C@H]6[C@@]56C=C[C@]4(C3)OO6)CC2)C1=O | 10.2 | 22.6 | 15.4 |
| CC(C)/C=C1/SC(=O)N(CC(=O)O[C@H]2CC[C@]3(C)[C@H]4CC[C@]5(C)[C@@H]([C@H](C)/C=C/[C@H](C)C(C)C)CC[C@H]5[C@@]45C=C[C@]3(C2)OO5)C1=O | 7.65 | 14.6 | 20.4 |
| Cc1ccc(/C=C2/SC(=O)N(CC(=O)O[C@H]3CC[C@]4(C)[C@H]5CC[C@]6(C)[C@@H]([C@H](C)/C=C/[C@H](C)C(C)C)CC[C@H]6[C@@]56C=C[C@]4(C3)OO6)C2=O)cc1 | 14.2 | 14.6 | 11.5 |
| CC(C)[C@@H](C)/C=C/[C@@H](C)[C@H]1CC[C@@H]2[C@]1(C)CC[C@H]1[C@]23C=C[C@]2(C[C@@H](OC(=O)CN4C(=O)CSC4=O)CC[C@]12C)OO3 | 7.52 | 17.7 | 10.4 |
| CC(C)[C@@H](C)/C=C/[C@@H](C)[C@H]1CC[C@@H]2[C@]1(C)CC[C@H]1[C@]23C=C[C@]2(C[C@@H](OC(=O)CN4C(=O)S/C(=C/c5ccccc5)C4=O)CC[C@]12C)OO3 | 13.7 | 17.6 | 12.5 |
| CC(C)[C@@H](C)/C=C/[C@@H](C)[C@H]1CC[C@@H]2[C@]1(C)CC[C@H]1[C@]23C=C[C@]2(C[C@@H](OC(=O)CN4C(=O)S/C(=C/c5ccco5)C4=O)CC[C@]12C)OO3 | 15 | 20.2 | 21 |
| COc1ccccc1/C=C1/SC(=O)N(CC(=O)O[C@H]2CC[C@]3(C)[C@H]4CC[C@]5(C)[C@@H]([C@H](C)/C=C/[C@H](C)C(C)C)CC[C@H]5[C@@]45C=C[C@]3(C2)OO5)C1=O | 13.1 | 18.9 | 14.3 |
